Experimental data as given in US11352363B1, “Spiropyrrolidine derived antiviral agents” (Enanta Pharmaceuticals, Inc., priority 2020, dated 2022).
Read-outs that look alike come from different tables or passages of the source.

Molecular target: SARS-CoV-2 3CL-protease (Severe acute respiratory syndrome coronavirus 2 (2019-nCoV) (SARS-CoV-2), UniProt P0DTD1)
Assay: SARS-CoV-2 3C-like (3CL) protease fluorescence assay (FRET)
Type: biochemical

Row | SMILES | IC50 (read-out: FRET IC50) [nM] | IC50 [nM]
1 | CC(C)C[C@H](NC(=O)c1cc2c(F)cccc2[nH]1)C(=O)N1C[C@]2(C[C@H]1C#N)C(=O)Nc1c(F)cccc12 [Compound 28] | < 100 | –
2 | COc1cccc2[nH]c(C(=O)N[C@@H](CC(C)C)C(=O)N3C[C@]4(C[C@H]3C(O)S(=O)(=O)O)C(=O)Nc3ccccc34)cc12 (stereo partly shown) [Compound 29] | < 100 | –
3 | CC(C)C[C@@H](C(=O)N1C[C@]2(C[C@H]1C(O)S(=O)(=O)O)C(=O)Nc1ccccc12)N(C)C(=O)c1cc2c(F)cccc2[nH]1 (stereo partly shown) [Compound 30] | < 100 | –
4 | COc1cccc2[nH]c(C(=O)N[C@@H](CC(C)C)C(=O)N3C[C@]4(C[C@H]3C(=O)C(=O)NC3CC3)C(=O)Nc3ccccc34)cc12 [Compound 31] | 100 to 1000 | –
5 | COc1cccc2[nH]c(C(=O)N[C@@H](CC(C)C)C(=O)N3C[C@]4(C[C@H]3C(=O)C(=O)NCc3ccccc3)C(=O)Nc3ccccc34)cc12 [Compound 32] | < 100 | –
6 | COc1cccc2[nH]c(C(=O)N[C@@H](CC(C)C)C(=O)N3C[C@]4(C[C@H]3C(=O)C(=O)NC3CCCCC3)C(=O)Nc3ccccc34)cc12 [Compound 33] | < 100 | –
7 | COc1cccc2[nH]c(C(=O)N(C)[C@@H](CC(C)C)C(=O)N3C[C@]4(C[C@H]3C(=O)C(=O)NC3CCCCC3)C(=O)Nc3ccccc34)cc12 [Compound 34] | > 1000 | –
8 | CC(C)C[C@@H](C(=O)N1C[C@]2(C[C@H]1C(=O)C(=O)NC1CCCCC1)C(=O)Nc1ccccc12)N(C)C(=O)c1cc2c(F)cccc2[nH]1 [Compound 35] | > 1000 | –
9 | CC(C)C[C@@H](C(=O)N1C[C@]2(C[C@H]1C(=O)C(=O)NC1CC1)C(=O)Nc1ccccc12)N(C)C(=O)c1cc2c(F)cccc2[nH]1 [Compound 36] | 100 to 1000 | –
10 | COc1cccc2[nH]c(C(=O)N[C@@H](CC(C)C)C(=O)N3C[C@]4(C[C@H]3C(=O)O)C(=O)Nc3ccccc34)cc12 [Compound 37] | 100 to 1000 | –
11 | COc1cccc2[nH]c(C(=O)N[C@@H](CC(C)C)C(=O)N3C[C@]4(C[C@H]3C(=O)NS(=O)(=O)C3CC3)C(=O)Nc3ccccc34)cc12 [Compound 38] | > 1000 | –
12 | CC(C)C[C@@H](C(=O)N1C[C@]2(C[C@H]1C#N)C(=O)Nc1ccccc12)N(C)C(=O)OCc1ccccc1 [Compound 39] | < 100 | –
13 | CN(C(=O)OCc1ccccc1)[C@@H](CC(C)(C)C)C(=O)N1C[C@]2(C[C@H]1C#N)C(=O)Nc1ccccc12 [Compound 40] | < 100 | –
14 | COc1cccc2[nH]c(C(=O)N(C)[C@@H](CC(C)C)C(=O)N3C[C@]4(C[C@H]3C#N)C(=O)Nc3ccccc34)cc12 [Compound 42] | < 100 | –
15 | CC(C)C[C@@H](C(=O)N1C[C@]2(C[C@H]1C#N)C(=O)Nc1ccccc12)N(C)C(=O)c1sc2cc(F)ccc2c1Cl [Compound 43] | 100 to 1000 | –
16 | CC(C)C[C@@H](C(=O)N1C[C@]2(C[C@H]1C#N)C(=O)Nc1ccccc12)N(C)C(=O)c1cc2c(F)cccc2[nH]1 [Compound 44] | < 100 | –
17 | CC(C)C[C@@H](C(=O)N1C[C@]2(C[C@H]1C#N)C(=O)Nc1ccccc12)N(C)C(=O)c1cc2c(C3CC3)cccc2[nH]1 [Compound 45] | < 100 | –
18 | CC(C)C[C@@H](C(=O)N1C[C@]2(C[C@H]1C#N)C(=O)Nc1ccccc12)N(C)C(=O)c1cc2c(F)cc(F)cc2[nH]1 [Compound 46] | < 100 | –
19 | Cc1c(C(=O)N(C)[C@@H](CC(C)C)C(=O)N2C[C@]3(C[C@H]2C#N)C(=O)Nc2ccccc23)[nH]c2cc(F)cc(F)c12 [Compound 47] | < 100 | –
20 | CC(C)C[C@@H](C(=O)N1C[C@]2(C[C@H]1C#N)C(=O)Nc1ccccc12)N(C)C(=O)c1[nH]c2ccccc2c1-c1ccccc1 [Compound 48] | 100 to 1000 | –

Row | SMILES | IC50 (read-out: FRET IC50) [nM] | IC50 [nM]
21 | CC(C)C[C@@H](C(=O)N1C[C@]2(C[C@H]1C#N)C(=O)Nc1ccccc12)N(C)C(=O)c1cc2c(OC(F)(F)F)cccc2[nH]1 [Compound 49] | < 100 | –
22 | CC(C)C[C@@H](C(=O)N1C[C@]2(C[C@H]1C#N)C(=O)Nc1ccccc12)N(C)C(=O)c1cc2ccc(F)cc2[nH]1 [Compound 50] | < 100 | –
23 | CC(C)C[C@@H](C(=O)N1C[C@]2(C[C@H]1C#N)C(=O)Nc1ccccc12)N(C)C(=O)c1cc2c(OC(F)F)cccc2[nH]1 [Compound 51] | < 100 | –
24 | COc1cccc2c1cc(C(=O)N(C)[C@@H](CC(C)C)C(=O)N1C[C@]3(C[C@H]1C#N)C(=O)Nc1ccccc13)n2C [Compound 53] | < 100 | –
25 | CC(C)C[C@@H](C(=O)N1C[C@]2(C[C@H]1C#N)C(=O)Nc1ccccc12)N(C)C(=O)c1cc2cc(-c3ccccc3)ccc2[nH]1 [Compound 54] | < 100 | –
26 | CC(C)C[C@@H](C(=O)N1C[C@]2(C[C@H]1C#N)C(=O)Nc1ccccc12)N(C)C(=O)c1cc2ccc(-c3ccccc3)cc2[nH]1 [Compound 55] | < 100 | –
27 | CC(C)C[C@@H](C(=O)N1C[C@]2(C[C@H]1C#N)C(=O)Nc1ccccc12)N(C)C(=O)c1cc2cc(C(C)(C)C)ccc2[nH]1 [Compound 56] | < 100 | –
28 | CC(C)C[C@@H](C(=O)N1C[C@]2(C[C@H]1C#N)C(=O)Nc1ccccc12)N(C)C(=O)c1cc2ccc(C(C)(C)C)cc2[nH]1 [Compound 57] | < 100 | –
29 | COc1ccc(Cl)c(C(=O)N(C)[C@@H](CC(C)C)C(=O)N2C[C@]3(C[C@H]2C#N)C(=O)Nc2ccccc23)c1 [Compound 58] | < 100 | –
30 | CC(C)C[C@@H](C(=O)N1C[C@]2(C[C@H]1C#N)C(=O)Nc1ccccc12)N(C)C(=O)c1ncccc1Cl [Compound 59] | < 100 | –
31 | CC(C)C[C@@H](C(=O)N1C[C@]2(C[C@H]1C#N)C(=O)Nc1ccccc12)N(C)C(=O)c1cncc(C#N)c1 [Compound 60] | < 100 | –
32 | CC(C)C[C@@H](C(=O)N1C[C@]2(C[C@H]1C#N)C(=O)Nc1ccccc12)N(C)C(=O)c1ccc(F)cc1Cl [Compound 61] | < 100 | –
33 | CC(C)C[C@@H](C(=O)N1C[C@]2(C[C@H]1C#N)C(=O)Nc1ccccc12)N(C)C(=O)c1cc(F)ccc1Cl [Compound 62] | < 100 | –
34 | CC(C)C[C@@H](C(=O)N1C[C@]2(C[C@H]1C#N)C(=O)Nc1ccccc12)N(C)C(=O)c1ccc(F)c(Cl)c1 [Compound 63] | < 100 | –
35 | CC(C)C[C@@H](C(=O)N1C[C@]2(C[C@H]1C#N)C(=O)Nc1ccccc12)N(C)C(=O)c1c(Cl)cccc1Cl [Compound 64] | < 100 | –
36 | CC(C)C[C@@H](C(=O)N1C[C@]2(C[C@H]1C#N)C(=O)Nc1ccccc12)N(C)C(=O)c1cc2c(Cl)cccc2[nH]1 [Compound 65] | < 100 | –
37 | CC(C)C[C@@H](C(=O)N1C[C@]2(C[C@H]1C#N)C(=O)Nc1ccccc12)N(C)C(=O)c1cc2c(Br)ccc(Cl)c2[nH]1 [Compound 66] | < 100 | –
38 | CC(C)C[C@@H](C(=O)N1C[C@]2(C[C@H]1C#N)C(=O)Nc1ccccc12)N(C)C(=O)c1cc2c(C#N)cccc2[nH]1 [Compound 67] | < 100 | –
39 | CC(C)C[C@@H](C(=O)N1C[C@]2(C[C@H]1C#N)C(=O)Nc1ccccc12)N(C)C(=O)c1cc2cc(F)cc(F)c2[nH]1 [Compound 68] | – | < 100
40 | CC(C)C[C@@H](C(=O)N1C[C@]2(C[C@H]1C#N)C(=O)Nc1ccccc12)N(C)C(=O)c1cc2cc(F)c(F)cc2[nH]1 [Compound 69] | < 100 | –

Row | SMILES | IC50 (read-out: FRET IC50) [nM] | IC50 [nM]
41 | CC(C)C[C@@H](C(=O)N1C[C@]2(C[C@H]1C#N)C(=O)Nc1ccccc12)N(C)C(=O)c1cc2cc(F)ccc2[nH]1 [Compound 70] | < 100 | –
42 | CC(C)C[C@@H](C(=O)N1C[C@]2(C[C@H]1C#N)C(=O)Nc1ccccc12)N(C)C(=O)c1cc2c(F)ccc(F)c2[nH]1 [Compound 71] | < 100 | –
43 | CC(C)C[C@@H](C(=O)N1C[C@]2(C[C@H]1C#N)C(=O)Nc1ccccc12)N(C)C(=O)c1cc2c(Cl)cc(F)cc2[nH]1 [Compound 72] | < 100 | –
44 | CC(C)C[C@@H](C(=O)N1C[C@]2(C[C@H]1C#N)C(=O)Nc1ccccc12)N(C)C(=O)c1cc2c(F)c(Cl)ccc2[nH]1 [Compound 73] | < 100 | –
45 | CC(C)C[C@@H](C(=O)N1C[C@]2(C[C@H]1C#N)C(=O)Nc1ccccc12)N(C)C(=O)c1cc2c(Cl)cc(Cl)cc2[nH]1 [Compound 74] | < 100 | –
46 | CC(C)C[C@@H](C(=O)N1C[C@]2(C[C@H]1C#N)C(=O)Nc1ccccc12)N(C)C(=O)c1n[nH]c2ccccc12 [Compound 75] | < 100 | –
47 | CC(C)C[C@@H](C(=O)N1C[C@]2(C[C@H]1C#N)C(=O)Nc1ccccc12)N(C)C(=O)c1cc2cc(Cl)cc(Cl)c2[nH]1 [Compound 76] | < 100 | –
48 | CC(C)C[C@@H](C(=O)N1C[C@]2(C[C@H]1C#N)C(=O)Nc1ccccc12)N(C)C(=O)c1[nH]c2ccc(F)cc2c1Cl [Compound 77] | 100 to 1000 | –
49 | CC(C)C[C@@H](C(=O)N1C[C@]2(C[C@H]1C#N)C(=O)Nc1ccccc12)N(C)C(=O)c1cc2ccccc2[nH]1 [Compound 78] | < 100 | –
50 | CC(C)C[C@@H](C(=O)N1C[C@]2(C[C@H]1C#N)C(=O)Nc1ccccc12)N(C)C(=O)c1cc2c(Br)cccc2[nH]1 [Compound 79] | < 100 | –
51 | CN(C(=O)c1cc2c(F)cccc2[nH]1)[C@@H](Cc1ccccc1)C(=O)N1C[C@]2(C[C@H]1C#N)C(=O)Nc1ccccc12 [Compound 80] | < 100 | –
52 | CN(C(=O)c1cc2c(F)cc(F)cc2[nH]1)[C@@H](Cc1ccccc1)C(=O)N1C[C@]2(C[C@H]1C#N)C(=O)Nc1ccccc12 [Compound 81] | < 100 | –
53 | CC(C)C[C@@H](C(=O)N1C[C@]2(C[C@H]1C#N)C(=O)Nc1ccccc12)N(C)C(=O)c1cc2c(OC3CC3)cccc2[nH]1 [Compound 82] | < 100 | –
54 | CC(C)C[C@@H](C(=O)N1C[C@]2(C[C@H]1C#N)C(=O)Nc1ccccc12)N(C)C(=O)c1cc2c(F)c(F)c(F)cc2[nH]1 [Compound 83] | < 100 | –
55 | CC(C)C[C@@H](C(=O)N1C[C@]2(C[C@H]1C#N)C(=O)Nc1ccccc12)N(C)C(=O)c1cc2cc(C(C)C)ccc2[nH]1 [Compound 84] | < 100 | –
56 | COc1cccc2[nH]c(C(=O)N(C)[C@@H](CC(C)(C)C)C(=O)N3C[C@]4(C[C@H]3C#N)C(=O)Nc3ccccc34)cc12 [Compound 85] | < 100 | –
57 | CN(C(=O)c1cc2c(F)c(F)ccc2[nH]1)[C@@H](CC(C)(C)C)C(=O)N1C[C@]2(C[C@H]1C#N)C(=O)Nc1ccccc12 [Compound 86] | < 100 | –
58 | CN(C(=O)c1cc2c(F)cccc2[nH]1)[C@@H](CC(C)(C)C)C(=O)N1C[C@]2(C[C@H]1C#N)C(=O)Nc1ccccc12 [Compound 87] | < 100 | –
